According to patent US11597703B2, “Caspase inhibitors and methods of use thereof” (Histogen Inc., priority 2019, dated 2023):
pIC50: −log10 of the molar value.

Experiments:
Caspase-1 = molecular target: T1, Caspase-1 (Homo sapiens, UniProt P29466); assay: Caspase-1 enzyme inhibition assay (Ac-YVAD-pNA substrate), IC50; format: biochemical
T1 construct: purchased Enzo Biosciences
T1 sequence (P29466 120-297 limits assumed): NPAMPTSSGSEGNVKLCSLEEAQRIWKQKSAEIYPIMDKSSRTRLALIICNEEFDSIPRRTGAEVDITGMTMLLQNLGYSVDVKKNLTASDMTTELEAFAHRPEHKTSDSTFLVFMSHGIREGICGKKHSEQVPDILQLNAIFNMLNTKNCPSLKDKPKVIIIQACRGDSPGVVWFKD
T1 sequence (P29466 317-404 limits assumed): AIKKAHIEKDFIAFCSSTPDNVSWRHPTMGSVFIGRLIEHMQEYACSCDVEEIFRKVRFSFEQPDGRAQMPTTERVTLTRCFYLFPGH
Description: (§1) Human caspases were purchased from Enzo Biosciences and used according to the manufacturer's instructions. An exemplary caspase assay, for Caspase-1, is provided below:
Caspase-1 was diluted to 10 U/μl in assay buffer consisting of 50 mM HEPES, pH 7.4, 100 mM NaCl, 0.1% CHAPS, 1 mM EDTA, 10% glycerol and 10 mM DTT.
45 μl of assay buffer was added into ½ volume microtiter plate. The plate was allowed to equilibrate to assay temperature. 5 μl of Caspase-1 (10 U/μl) was added to each appropriate well. Two 2 blank wells containing assay buffer alone without Caspase-1 were included on the plate.
The reaction was started by the addition of 50 μl Ac-YVAD-pNA substrate, for a final substrate concentration of 200 μM. The reaction was continuously monitored at 405 nm. The data was graphed as OD405 nm vs time, and the slope was determined over the linear portion of the curve. The rates in OD/min were converted to substrate/min using an extinction coefficient for p-nitroaniline of 10,500M-1 cm-1, and were adjusted for pathlength of sample. […]

Caspase-3 = molecular target: T2, Caspase-3 (Homo sapiens, UniProt P42574); assay: Caspase-3 enzymatic inhibition assay, IC50; format: biochemical; settings: read-out: Caspase 3 enzyme inhibition IC50
T2 construct: purchased Enzo Biosciences
T2 sequence (P42574 29-175 limits assumed): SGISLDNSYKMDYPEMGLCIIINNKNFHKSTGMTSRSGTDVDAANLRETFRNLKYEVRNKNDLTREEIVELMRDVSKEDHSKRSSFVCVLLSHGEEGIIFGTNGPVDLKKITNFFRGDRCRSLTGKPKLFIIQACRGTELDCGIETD
T2 sequence (P42574 176-277 limits assumed): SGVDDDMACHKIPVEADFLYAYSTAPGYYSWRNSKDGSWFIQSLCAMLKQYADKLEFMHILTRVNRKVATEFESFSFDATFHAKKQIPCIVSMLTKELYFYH
Description: as §1
(§2) Enzymatic assays were conducted for Caspase-3, 6 and 7 activity according to the manufacture's instructions.

Caspase 6 = molecular target: T3, Caspase 6 (Homo sapiens, UniProt P55212); assay: Caspase 6 enzymatic inhibition assay, IC50; format: biochemical; settings: read-out: Caspase 6 enzyme inhibition IC50
T3 construct: purchased Enzo Biosciences
T3 sequence (P55212 24-179 limits assumed): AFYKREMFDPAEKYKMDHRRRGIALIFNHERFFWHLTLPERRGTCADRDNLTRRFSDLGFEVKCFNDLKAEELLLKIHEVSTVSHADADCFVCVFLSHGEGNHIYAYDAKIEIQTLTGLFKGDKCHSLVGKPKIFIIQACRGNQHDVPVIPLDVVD
T3 sequence (P55212 194-293 limits assumed): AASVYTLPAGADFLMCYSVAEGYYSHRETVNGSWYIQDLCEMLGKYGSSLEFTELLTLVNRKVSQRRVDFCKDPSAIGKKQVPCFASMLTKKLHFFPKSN
Description: as §1, §2

Jurkat cells = assay: Prevention of Fas-induced apoptosis in Jurkat cells (WST-8); format: cell-based; settings: Homo sapiens, 10 micromolar, read-out: % Prevention of Fas - induced Jurkat cell apoptosis at 10 micromolar
Description: Compounds of the present invention were evaluated in Jurkat cells, a human T-lymphocyte cell line, to evaluate compounds ability to inhibit apoptotic cell death. Jurkat cells, Clone E6-1 (ATCC TIB-152) were grown in culture maintain a cell density between 0.5-2 million cells/mL. Cells were tested for viability and countion with typan blue stain before use. Test compounds were addedd to 96 well plates and Jurkat cells were added at a concentration of approximately 100,000 cells per well and mixed thoroughly by action of pipetting. Plated cells were incubated for 1 hour at 37 degrees C. under an atmosphere of 5% CO2. Anti-Fas antibody was added and mixed by pipet action. Plates were incubated for 20 hours at 37 degrees C. under an atmosphere of 5% CO2. 10 microliters of thawed WST-8 solution was added to each well and incubated for 4 hours. Absorbance was measured at 450 nm and control reading at […] using a SpectraMax ID5 plate reader. Apoptotic cell death is executed by caspases 3, 7 and 6. Compounds that lack activity against these caspases will not prevent the death of Jurkat cells and is a functional test of selectivity for inflammatory over apoptotic caspases.
IC50 values to protect against Fas induced apoptosis and improve survival of Jurkat cells were determined from dose response studies.

IL-1β = assay: Inhibition of LPS-stimulated IL-1β in THP-1 cells (ELISA); format: cell-based, human; settings: Homo sapiens, 10 micromolar, read-out: Percent Inhibition of IL1-β
Description: Compounds in the present invention were tested in THP-1 cells, a human monocyte cell line, to assess the inhibition of the inflammatory cytokine IL-1β. THP-1 cells (ATCC TIB-202) were grown in culture and seeded in 96 well plates at a concentration of 200,000 cells per well with a total volume of 150 μL. Plated cells were incubated overnight at 37 degrees C. under an atmosphere of 5% CO2. Media was removed from cells which were washed with PBS. Test compounds were diluted in DMSO stock solution and serially diluted appropriately for initial screening and IC50 determinations. LPS in serum free media (140 μL of […]) was added to each well to stimulate IL-1β production. IL-1β was measured by ELISA assay kit (R&D Systems) per the manufacturers instructions.
IC50 values for the inhibition of IL-1 in THP 1 cells were determined from dose response studies.

Caspase 7 = molecular target: T4, Caspase 7 (Homo sapiens, UniProt P55210); assay: Caspase 7 enzymatic inhibition assay, IC50; format: biochemical; settings: read-out: Caspase 7 enzyme inhibition IC50
T4 construct: purchased Enzo Biosciences
T4 sequence (P55210 24-198 limits assumed): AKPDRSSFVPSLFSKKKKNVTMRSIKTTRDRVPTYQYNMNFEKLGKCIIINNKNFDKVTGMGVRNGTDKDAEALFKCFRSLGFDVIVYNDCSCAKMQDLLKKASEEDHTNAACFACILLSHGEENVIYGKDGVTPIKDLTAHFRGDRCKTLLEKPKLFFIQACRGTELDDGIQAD
T4 sequence (P55210 207-303 limits assumed): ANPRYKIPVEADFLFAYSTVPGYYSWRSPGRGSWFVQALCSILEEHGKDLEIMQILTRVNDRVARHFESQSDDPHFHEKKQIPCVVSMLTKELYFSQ
Description: as §1, §2

Compound	pIC50 (Caspase-1)	pIC50 (Caspase-3)	pIC50 (Caspase 6)	inhibition at 10 µM (Jurkat cells) [%]	inhibition at 10 µM (IL-1β) [%]	pIC50 (Caspase 7)
C[C@H](NC(=O)C(=O)Nc1c(F)cccc1F)C(=O)N[C@@H](CCOC(=O)c1ccccc1)C(=O)COc1c(F)c(F)cc(F)c1F [Example 8, (S)-3-((S)-2-(2-((2,6-Difluorophenyl)amino)-2-oxoacetamido)propanamido)-4-oxo-5-(2,3,5,6-tetrafluorophenoxy)pentyl benzoate]	6.00 to 7.00	≤ 6.00	≤ 6.00	≤ 10	25 to 50	≤ 6.00
C[C@H](NC(=O)C(=O)Nc1c(F)cccc1F)C(=O)N[C@@H](CCC(=O)O)C(=O)COc1cc(C(F)(F)F)cc(C(F)(F)F)c1 [Example 10, (S)-6-(3,5-bis(trifluoromethyl)phenoxy)-4-((S)-2-(2-((2,6-difluorophenyl)amino)-2-oxoacetamido)propanamido)-5-oxohexanoic acid]	≥ 8.00	≤ 6.00	≤ 6.00	≤ 10	> 90	≤ 6.00
O=C(O)CC[C@H](NC(=O)CNC(=O)C(=O)Nc1c(F)cccc1F)C(=O)COc1c(F)c(F)cc(F)c1F [Example 9, (S)-4-(2-(2-((2,6-difluorophenyl)amino)-2-oxoacetamido)acetamido)-5-oxo-6-(2,3,5,6-tetrafluorophenoxy)hexanoic acid]	≥ 8.00	≤ 6.00	≤ 6.00	≤ 10	> 90	≤ 6.00
C[C@H](NC(=O)C(=O)Nc1c(F)cccc1F)C(=O)N[C@@H](CCC(=O)O)C(=O)COc1ccnc(C(F)(F)F)n1 [Example 15, (S)-4-((S)-2-(2-((2,6-Difluorophenyl)amino)-2-oxoacetamido)propanamido)-5-oxo-6-((2-(trifluoromethyl)pyrimidin-4-yl)oxy)hexanoic acid]	≥ 8.00	≤ 6.00	≤ 6.00	≤ 10	> 90	≤ 6.00
Cc1cccc(NC(=O)C(=O)N[C@@H](C)C(=O)N[C@@H](CCC(=O)O)C(=O)COc2c(F)c(F)cc(F)c2F)c1 [Example 20, (S)-4-((S)-2-(2-((3-methylphenyl)amino)-2-oxoacetamido)propanamido)-5-oxo-6-(2,3,5,6-tetrafluorophenoxy)hexanoic acid]	≥ 8.00	≤ 6.00	≤ 6.00	≤ 10	> 90	≤ 6.00
O=C(O)CC[C@H](NC(=O)Cn1ccc2ccc(Cl)cc2c1=O)C(=O)COc1c(F)c(F)cc(F)c1F [Example 16, (S)-4-(2-(7-Chloro-1-oxoisoquinolin-2(1H)-yl)acetamido)-5-oxo-6-(2,3,5,6-tetrafluorophenoxy)hexanoic acid]	≥ 8.00	≤ 6.00	≤ 6.00	≤ 10	> 90	≤ 6.00
C[C@H](NC(=O)C(=O)Nc1ccc(F)cc1)C(=O)N[C@@H](CCC(=O)O)C(=O)COc1c(F)c(F)cc(F)c1F [Example 17, (S)-4-((S)-2-(2-((4-fluorophenyl)amino)-2-oxoacetamido)propanamido)-5-oxo-6-(2,3,5,6-tetrafluorophenoxy)hexanoic acid]	≥ 8.00	≤ 6.00	≤ 6.00	≤ 10	> 90	≤ 6.00
C[C@H](NC(=O)C(=O)Nc1c(F)cccc1F)C(=O)N[C@@H](CCO)C(=O)COc1c(F)c(F)cc(F)c1F [Example 2, N^1-(2,6-Difluorophenyl)-N^2—((S)-1-(((S)-5-hydroxy-2-oxo-1-(2,3,5,6-tetrafluorophenoxy)pentan-3-yl)amino)-1-oxopropan-2-yl)oxalamide]	7.00 to 8.00	≤ 6.00	≤ 6.00	≤ 10	50 to 90	≤ 6.00
C[C@H](NC(=O)C(=O)Nc1c(F)cccc1F)C(=O)N[C@@H](CCOCc1ccccc1)C(=O)COc1c(F)c(F)cc(F)c1F [Example 1, N^1-((S)-1-(((S)-5-(Benzyloxy)-2-oxo-1-(2,3,5,6-tetrafluorophenoxy)pentan-3-yl)amino)-1-oxopropan-2-yl)-N^2-(2,6-difluorophenyl)oxalamide]	7.00 to 8.00	≤ 6.00	≤ 6.00	≤ 10	50 to 90	≤ 6.00
C[C@H](NC(=O)C(=O)Nc1c(F)cccc1F)C(=O)N[C@@H](CCOC(=O)Oc1ccccc1)C(=O)COc1c(F)c(F)cc(F)c1F [Example 7, (S)-3-((S)-2-(2-((2,6-Difluorophenyl)amino)-2-oxoacetamido)propanamido)-4-oxo-5-(2,3,5,6-tetrafluorophenoxy)pentyl phenyl carbonate]	7.00 to 8.00	≤ 6.00	≤ 6.00	≤ 10	50 to 90	≤ 6.00
C[C@H](NC(=O)C(=O)Nc1cccc(F)c1)C(=O)N[C@@H](CCC(=O)O)C(=O)COc1c(F)c(F)cc(F)c1F [Example 18, (S)-4-((S)-2-(2-((3fluorophenyl)amino)-2-oxoacetamido)propanamido)-5-oxo-6-(2,3,5,6-tetrafluorophenoxy)hexanoic acid]	≥ 8.00	≤ 6.00	≤ 6.00	≤ 10	> 90	≤ 6.00
COCC[C@H](NC(=O)[C@H](C)NC(=O)C(=O)Nc1c(F)cccc1F)C(=O)COc1c(F)c(F)cc(F)c1F [Example 5, N^1-(2,6-Difluorophenyl)-N^2—((S)-1-(((S)-5-methoxy-2-oxo-1-(2,3,5,6-tetrafluorophenoxy)pentan-3-yl)amino)-1-oxopropan-2-yl)oxalamide]	6.00 to 7.00	≤ 6.00	≤ 6.00	≤ 10	25 to 50	≤ 6.00
